For assay [1], the target named is T1, HDAC6 (Homo sapiens, UniProt Q9UBN7).
T1 construct: purchased Sigma Aldrich or Reaction Biology Corporation
T1 sequence (Q9UBN7 1-1215): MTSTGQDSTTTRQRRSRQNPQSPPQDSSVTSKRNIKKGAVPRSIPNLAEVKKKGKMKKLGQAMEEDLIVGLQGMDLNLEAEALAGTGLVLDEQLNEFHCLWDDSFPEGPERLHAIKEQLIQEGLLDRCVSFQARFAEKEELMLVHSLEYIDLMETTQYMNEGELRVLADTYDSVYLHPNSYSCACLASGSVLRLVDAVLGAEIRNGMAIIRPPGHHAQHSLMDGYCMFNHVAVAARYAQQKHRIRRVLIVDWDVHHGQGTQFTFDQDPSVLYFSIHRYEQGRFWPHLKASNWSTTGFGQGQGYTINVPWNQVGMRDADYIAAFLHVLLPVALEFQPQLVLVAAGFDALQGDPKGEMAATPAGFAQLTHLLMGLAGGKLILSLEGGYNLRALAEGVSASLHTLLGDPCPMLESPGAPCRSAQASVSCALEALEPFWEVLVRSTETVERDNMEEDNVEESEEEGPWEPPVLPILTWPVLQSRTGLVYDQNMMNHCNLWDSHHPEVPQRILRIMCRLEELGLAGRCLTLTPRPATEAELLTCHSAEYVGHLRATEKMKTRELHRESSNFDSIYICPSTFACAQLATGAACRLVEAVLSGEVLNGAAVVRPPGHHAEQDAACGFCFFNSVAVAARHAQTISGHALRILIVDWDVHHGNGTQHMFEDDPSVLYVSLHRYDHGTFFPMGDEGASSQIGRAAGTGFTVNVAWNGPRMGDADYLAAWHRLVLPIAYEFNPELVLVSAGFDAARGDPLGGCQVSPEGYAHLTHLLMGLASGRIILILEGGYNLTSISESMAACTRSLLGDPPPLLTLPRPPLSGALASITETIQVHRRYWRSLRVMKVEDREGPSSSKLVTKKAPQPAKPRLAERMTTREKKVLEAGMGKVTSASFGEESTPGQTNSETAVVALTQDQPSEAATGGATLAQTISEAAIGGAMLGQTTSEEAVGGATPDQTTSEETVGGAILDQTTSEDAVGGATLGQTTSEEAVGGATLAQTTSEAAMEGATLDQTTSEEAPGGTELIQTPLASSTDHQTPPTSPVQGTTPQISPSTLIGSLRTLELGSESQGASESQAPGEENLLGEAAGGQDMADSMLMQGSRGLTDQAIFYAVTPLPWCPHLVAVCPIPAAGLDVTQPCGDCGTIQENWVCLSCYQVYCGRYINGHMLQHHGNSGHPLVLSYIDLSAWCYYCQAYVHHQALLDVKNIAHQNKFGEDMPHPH
Description: In vitro enzymatic assay HDAC6 (Fluor de Lys). The settings on record: for HDAC6 % of inhibition at 100 µM / inhibition at 100 µM: mean ± SD (n=3); for inhibition at 100 µM: read-out: HDAC6 % of inhibition at 100 µM; for IC50: average of at least 2 independent experiments in duplicates ± SEM; for selectivity index (SI) with respect to HDAC2: HDAC6 versus HDAC2. Format: biochemical.

For assay [2], the system named is class I HDACs (HeLa nuclear extracts). Description: HDAC activity of HeLa nuclear extracts (Fluor de Lys). The format is biochemical, human.
The target in another assay is T2, HDAC2 (Homo sapiens, UniProt Q92769).
T2 construct: purchased Sigma Aldrich or Reaction Biology Corporation
Description: In vitro enzymatic assay HDAC2 (Fluor de Lys). Format: biochemical. The settings on record: average of at least 2 independent experiments in duplicates ± SEM.

The next assay has as its target T3, HDAC8 (Homo sapiens, UniProt Q9BY41).
T3 construct: purchased Sigma Aldrich or Reaction Biology Corporation
T3 sequence (Q9BY41 1-377): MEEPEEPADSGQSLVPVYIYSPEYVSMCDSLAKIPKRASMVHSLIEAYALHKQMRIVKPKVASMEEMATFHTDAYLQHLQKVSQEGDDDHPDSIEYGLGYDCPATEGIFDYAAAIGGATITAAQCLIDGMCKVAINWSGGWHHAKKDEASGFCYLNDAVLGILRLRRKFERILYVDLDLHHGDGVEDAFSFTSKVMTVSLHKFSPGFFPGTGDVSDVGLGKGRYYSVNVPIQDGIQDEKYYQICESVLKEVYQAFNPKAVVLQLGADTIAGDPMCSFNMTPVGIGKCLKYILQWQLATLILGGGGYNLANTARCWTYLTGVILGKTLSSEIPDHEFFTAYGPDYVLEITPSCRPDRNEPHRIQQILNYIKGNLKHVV
Description: In vitro enzymatic assay HDAC8 (Fluor de Lys). The format is biochemical. The settings on record: average of at least 2 independent experiments in duplicates ± SEM.

The target in the next assay is T4, HDAC4 (Homo sapiens, UniProt P56524).
T4 construct: purchased Sigma Aldrich or Reaction Biology Corporation
Kind of assay: In vitro enzymatic assay HDAC4 (Fluor de Lys). Format: biochemical. The following applies: average of at least 2 independent experiments in duplicates ± SEM.

In assay [3] the test system is HDAC6. Kind of assay: HDAC ChEMBL dataset / literature, enzymatic IC50 HDAC6. Format: biochemical. The settings on record: ratio of ChEMBL IC50 values.
Setting [4] is: 100 μM, average of at least 3 independent experiments in duplicates (Table 1).

The structures appear in SMILES notation.

T4 sequence (P56524 whole entry): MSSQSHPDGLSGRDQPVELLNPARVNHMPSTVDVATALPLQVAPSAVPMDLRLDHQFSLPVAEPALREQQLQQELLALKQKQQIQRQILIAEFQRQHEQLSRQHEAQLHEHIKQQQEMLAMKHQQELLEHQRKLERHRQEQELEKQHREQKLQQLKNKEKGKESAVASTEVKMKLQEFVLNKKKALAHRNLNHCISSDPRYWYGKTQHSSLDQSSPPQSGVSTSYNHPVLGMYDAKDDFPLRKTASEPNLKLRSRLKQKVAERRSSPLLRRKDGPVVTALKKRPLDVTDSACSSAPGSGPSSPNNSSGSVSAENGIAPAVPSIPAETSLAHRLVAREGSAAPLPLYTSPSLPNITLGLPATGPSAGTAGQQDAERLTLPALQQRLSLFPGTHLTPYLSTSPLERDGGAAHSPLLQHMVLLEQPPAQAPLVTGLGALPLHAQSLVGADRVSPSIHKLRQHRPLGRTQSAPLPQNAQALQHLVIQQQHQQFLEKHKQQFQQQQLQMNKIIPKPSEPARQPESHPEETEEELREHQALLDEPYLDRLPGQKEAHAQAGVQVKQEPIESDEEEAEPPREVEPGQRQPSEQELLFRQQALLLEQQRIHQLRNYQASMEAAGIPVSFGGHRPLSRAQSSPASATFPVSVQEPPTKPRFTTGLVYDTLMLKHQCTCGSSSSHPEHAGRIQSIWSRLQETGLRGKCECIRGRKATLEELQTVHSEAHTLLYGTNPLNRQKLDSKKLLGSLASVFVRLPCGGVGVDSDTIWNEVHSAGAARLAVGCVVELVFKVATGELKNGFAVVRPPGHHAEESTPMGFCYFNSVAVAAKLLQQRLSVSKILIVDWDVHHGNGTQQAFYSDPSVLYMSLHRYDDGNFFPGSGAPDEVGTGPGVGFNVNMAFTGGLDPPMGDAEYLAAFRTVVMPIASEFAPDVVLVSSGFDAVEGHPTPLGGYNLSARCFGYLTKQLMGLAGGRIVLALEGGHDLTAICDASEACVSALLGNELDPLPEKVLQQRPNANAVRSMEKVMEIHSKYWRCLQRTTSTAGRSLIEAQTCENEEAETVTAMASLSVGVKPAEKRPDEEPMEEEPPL
T2 sequence (Q92769 whole entry): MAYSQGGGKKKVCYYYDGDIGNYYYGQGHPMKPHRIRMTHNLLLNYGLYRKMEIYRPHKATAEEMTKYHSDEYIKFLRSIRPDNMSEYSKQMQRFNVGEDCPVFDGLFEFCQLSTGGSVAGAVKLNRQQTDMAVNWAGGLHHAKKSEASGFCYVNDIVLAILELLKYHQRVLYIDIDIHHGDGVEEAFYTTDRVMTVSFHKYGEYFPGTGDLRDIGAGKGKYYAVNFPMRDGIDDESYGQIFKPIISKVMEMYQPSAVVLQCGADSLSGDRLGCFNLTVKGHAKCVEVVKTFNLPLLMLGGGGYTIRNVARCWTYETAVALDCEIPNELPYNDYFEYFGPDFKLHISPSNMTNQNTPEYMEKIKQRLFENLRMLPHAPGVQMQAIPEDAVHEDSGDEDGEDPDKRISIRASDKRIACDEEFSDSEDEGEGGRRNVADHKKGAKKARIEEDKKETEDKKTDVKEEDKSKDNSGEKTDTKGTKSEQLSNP

Turning to `NS(=O)(=O)c1ccc(N2N=C(C(F)(F)F)/C(=C/c3ccc(-c4ccc(Cl)c(Cl)c4)o3)C2=O)cc1` [AN-1], the “HDAC6 % of inhibition at 100 µM” value on HDAC6 [1] is recorded as -43.0 ± 11.8%.

Take `CCOc1ccc(OCc2cccc(C(=O)NN)c2)cc1` [AK-17]: the “HDAC6 % of inhibition at 100 µM” value on HDAC6 [1] stood at 35.5 ± 10.5%.

Regarding `NNC(=O)c1ccc(Cn2cc(Cl)cn2)cc1` [AK-24], in assay [2] (setting [4]), the “HeLa % of inhibition at 100 μM” value came out at 33.3 ± 5.4%. Besides, on HDAC6 [1], the inhibition at 100 µM is 63.1 ± 12.2%. Besides, the IC50 against HDAC6 [1] was 74.9 ± 5.2 µM; against HDAC2, more than 200 µM; against HDAC8, 86.9 ± 0.7 µM; on HDAC4, more than 300 µM.

In the case of `Cn1cc(Br)c(C(=O)NN)n1` [AK-3], at HDAC6 [1], the “HDAC6 % of inhibition at 100 µM” value amounted to 0.1 ± 2.3%.

For `CC(C)C12CC3CC(CC(C(=O)NN)(C3)C1)C2` [AF-1], on HDAC6 [1], the “HDAC6 % of inhibition at 100 µM” value is listed as 5.2 ± 1.5%.

Consider `COc1cc(/C=C2/SC(N)=NC2=O)ccc1OCc1ccc(Cl)cc1Cl` [AG-2], for which the “HDAC6 % of inhibition at 100 µM” value on HDAC6 [1] is -2.8 ± 9.7% Self-fluorescence.

As to `CC1(C)Cc2ccccc2C2=C/C(=N/O)C(=O)N21` [AG-1], the “HeLa % of inhibition at 100 μM” value in assay [2] (setting [4]) turned out to be 38.2 ± 1.1%. The inhibition at 100 µM on HDAC6 [1] is 83.8 ± 2.3%. Moreover, the “selectivity index (SI) with respect to HDAC2” value on HDAC6 [1] is reported as more than 50. The IC50 at HDAC6 [1] was 21.7 ± 1.2 µM; against HDAC2, more than 1000 µM; against HDAC8 it was 0.3 ± 0.005 µM; against HDAC4 it was 111 ± 3.5 µM.

Regarding `NNC(=O)c1ccc(COc2ccccc2Br)cc1` [AK-18], the “HeLa % of inhibition at 100 μM” value in assay [2] (setting [4]) came out at 0.4 ± 3.9%. Besides, the inhibition at 100 µM at HDAC6 [1] was determined as 69 ± 2.4%. The IC50 is 16.4 ± 1.1 µM against HDAC6 [1], more than 1000 µM on HDAC2, more than 300 µM on HDAC8 and more than 300 µM on HDAC4.

In the case of `Cc1nn(Cc2ccc(C(=O)NN)o2)c(C)c1Cl` [AK-11], the “HDAC6 % of inhibition at 100 µM” value on HDAC6 [1] came out at 5.3 ± 19.9%.

In the case of `NNC(=O)CC12CC3CC(C1)CC(n1ncnn1)(C3)C2` [AK-13], on HDAC6 [1], the “HDAC6 % of inhibition at 100 µM” value was 23.7 ± 9.3%.

As to `O=C(NO)c1ccc(C(=O)NCCc2ccccc2)cc1` [CHEMBL2333340], in the assay on HDAC6 [3], the “Isoform selectivity (ratio) HDAC2/HDAC6” value was 151.75, the “Isoform selectivity (ratio) HDAC4/HDAC6” value turned out to be 8332.5 and the “Isoform selectivity (ratio) HDAC8/HDAC6” value is given as 287.5.

In the case of `CC(C)(C)CC(C)(C)c1ccc(OCC(=O)NN)c([N+](=O)[O-])c1` [AG-4], the “HDAC6 % of inhibition at 100 µM” value at HDAC6 [1] is listed as 5.5 ± 2.9%.

`Cn1cccc1C(=O)N1CCc2cc(C(=O)NO)ccc2C1` [CHEMBL2431901]: in the assay on HDAC6 [3], the “Isoform selectivity (ratio) HDAC2/HDAC6” value is 1388.9, the “Isoform selectivity (ratio) HDAC4/HDAC6” value turned out to be 1388.9 and the “Isoform selectivity (ratio) HDAC8/HDAC6” value stood at 58.33.

Regarding `COc1cc(/C=N/NC(N)=S)ccc1OCC(=O)Nc1ccc(C)c(C)c1` [AN-3], on HDAC6 [1], the “HDAC6 % of inhibition at 100 µM” value is recorded as -4.0 ± 3.9% Self-fluorescence.

`NNC(=O)c1cc(Br)cs1` [AK-20]: the “HDAC6 % of inhibition at 100 µM” value at HDAC6 [1] is 22.3 ± 8.7%.

For the compound `C=CCn1c(SCC(=O)Nc2ccc(S(N)(=O)=O)cc2)nnc1-c1sc(N)nc1C` [AS-1], the “HDAC6 % of inhibition at 100 µM” value on HDAC6 [1] was -1.8 ± 11.1%.

`COc1ccccc1OCc1ccc(C(=O)NN)cc1` [AK-5]: the “HeLa % of inhibition at 100 μM” value in assay [2] (setting [4]) is reported as 5.8 ± 1.3%. Besides, on HDAC6 [1], the inhibition at 100 µM came to 64.4 ± 1.3%. The IC50 at HDAC6 [1] was 45.6 ± 1.5 µM; at HDAC2 it was more than 200 µM; against HDAC8 it was 130 ± 9 µM; against HDAC4, more than 300 µM.

Turning to `O=C(CSc1nc2cc(Cl)c3cccnc3c2o1)c1ccc(O)c(O)c1` [AO-1], in assay [2] (setting [4]), the “HeLa % of inhibition at 100 μM” value is 20.7 ± 4.0%. For the same compound, the inhibition at 100 µM on HDAC6 [1] was 66.1 ± 6.9%. Also, on HDAC6 [1], the “selectivity index (SI) with respect to HDAC2” value is more than 50. Further, the 50% inhibitory concentration (IC50) was 16.9 ± 4.9 µM against HDAC6 [1], more than 1000 µM against HDAC2, 35.1 ± 1.1 µM against HDAC8 and 73.5 ± 6 µM at HDAC4.

Consider `NNC(=O)c1ccc(Cn2cc(Br)cn2)cc1` [AK-21], for which the “HeLa % of inhibition at 100 μM” value in assay [2] (setting [4]) stood at 14.7 ± 11.6%. At HDAC6 [1], the inhibition at 100 µM was found to be 67.9 ± 7.8%. The half-maximal inhibitory concentration (IC50) is 30.9 ± 2.1 µM against HDAC6 [1], 201.7 ± 1.9 µM on HDAC2, 74.9 ± 0.8 µM at HDAC8 and more than 300 µM against HDAC4.

For the compound `COc1ccccc1OCc1ccc(C(=O)NN)o1` [AK-15], the “HeLa % of inhibition at 100 μM” value in assay [2] (100 µM, mean ± SD (n=3) (Table S6)) is given as -2.6 ± 3.0%. Also, the “HDAC6 % of inhibition at 100 µM” value on HDAC6 [1] worked out at 42.1 ± 23.0%.

What is called inhibition is the share of the control response that was lost under treatment. By IC50 is commonly meant the concentration that gives 50% inhibition. Read a low IC50 as greater potency in that assay.

Source of the values: article PMC4941420, “A Rational Approach for the Identification of Non-Hydroxamate HDAC6-Selective Inhibitors” (Scientific Reports, 2016).
